Laboratory results: US9511073B2, “Aromatic amides and uses thereof” (TAXIS Pharmaceuticals, Inc., priority 2011, dated 2016)
In brackets after ≈: the same amount, converted by molar mass.

What follows are compounds tested on Staphylococcus aureus (Isolate ID ATCC 29213) (assay: Bacterial assay: MIC by broth microdilution or agar dilution (CLSI), S. aureus ATCC 29213). Conditions: Staphylococcus aureus, ATCC29213, read-out: S. aureus MIC (μg/mL) Activity Range, S. aureus (ATCC29213).
Format: cell-based
Procedure, shortened: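 Activity is binned (A ≤0.25 μg/mL; B >0.25–1.0; C >1.0–16; D >16 μg/mL) from MICs determined per CLSI by broth microdilution or agar dilution, on S. aureus ATCC 29213 plus an FtsZ-G196A mutant strain.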

SMILES	MIC [µg/mL]
NC(=O)c1c(F)ccc(OC(COC2CCCCO2)c2nc(-c3ccc(C(F)(F)F)cc3)c(Br)o2)c1F (stereo not shown) [Compound 105, 3-(1-(5-bromo-4-(4-(trifluoromethyl)phenyl)oxazol-2-yl)-2-((tetrahydro-2H-pyran-2-yl)oxy)ethoxy)-2,6-difluorobenzamide]	0.25 to 1 (≈ 0.423 to 1.69 µM)
Cc1nn(C)cc1CNC(=O)OCC(Oc1ccc(F)c(C(N)=O)c1F)c1nc(-c2ccc(C(F)(F)F)cc2)c(Br)o1 (stereo not shown) [Compound 204, 2-(5-bromo-4-(4-(trifluoromethyl)phenyl)oxazol-2-yl)-2-(3-carbamoyl-2,4-difluorophenoxy)ethyl ((1,3-dimethyl-1H-pyrazol-4-yl)methyl)carbamate]	0.25 to 1 (≈ 0.38 to 1.52 µM)
CCCc1oc(C(C)Oc2ccc(F)c(C(N)=O)c2F)nc1-c1ccccc1 (stereo not shown) [Compound 8]	1 to 16 (≈ 2.59 to 41.4 µM)
NC(=O)c1c(F)ccc(OC(CC(CO)CO)c2nc(-c3ccc(C(F)(F)F)cc3)c(Br)o2)c1F (stereo not shown) [Compound 139, 3-(1-(5-bromo-4-(4-(trifluoromethyl)phenyl)oxazol-2-yl)-4-hydroxy-3-(hydroxymethyl)butoxy)-2,6-difluorobenzamide]	1 to 16 (≈ 1.77 to 28.3 µM)
CCOC(=O)C(Oc1ccc(F)c(C(N)=O)c1F)c1coc(-c2ccc(C(F)(F)F)cc2)n1 (stereo not shown) [Compound 129, ethyl 2-(3-carbamoyl-2,4-difluorophenoxy)-2-(2-(4-(trifluoromethyl)phenyl)oxazol-4-yl)acetate]	1 to 16 (≈ 2.13 to 34 µM)
NC(=O)c1c(F)ccc(OC(CO)c2nc(-c3ccc(C(F)(F)F)cc3)oc2Br)c1F (stereo not shown) [Compound 138, 3-(1-(5-bromo-2-(4-(trifluoromethyl)phenyl)oxazol-4-yl)-2-hydroxyethoxy)-2,6-difluorobenzamide]	1 to 16 (≈ 1.97 to 31.5 µM)
C=CCOP(=O)(O)OCC(Oc1ccc(F)c(C(N)=O)c1F)c1nc(-c2ccc(C(F)(F)F)cc2)c(Br)o1 (stereo not shown) [Compound 75, allyl (2-(5-bromo-4-(4-(trifluoromethyl)phenyl)oxazol-2-yl)-2-(3-carbamoyl-2,4-difluorophenoxy)ethyl) hydrogen phosphate]	> 16
Cc1c(CNC(=O)OCC(Oc2ccc(F)c(C(N)=O)c2F)c2nc(-c3ccc(C(F)(F)F)cc3)c(Br)o2)cnn1C (stereo not shown) [Compound 205, 2-(5-bromo-4-(4-(trifluoromethyl)phenyl)oxazol-2-yl)-2-(3-carbamoyl-2,4-difluorophenoxy)ethyl ((1,5-dimethyl-1H-pyrazol-4-yl)methyl)carbamate]	0.25 to 1 (≈ 0.38 to 1.52 µM)
CC(=O)OCC(Oc1ccc(F)c(C(N)=O)c1F)c1nc(-c2ccc(-c3noc(C)n3)cc2)c(Br)o1 (stereo not shown) [Compound 82, 2-(5-bromo-4-(4-(5-methyl-1,2,4-oxadiazol-3-yl)phenyl)oxazol-2-yl)-2-(3-carbamoyl-2,4-difluorophenoxy)ethyl acetate]	1 to 16
CNc1ccc(-c2nc(C(CO)Oc3ccc(F)c(C(N)=O)c3F)oc2Br)cn1 (stereo not shown) [Compound 224, 3-(1-(5-bromo-4-(6-(methylamino)pyridin-3-yl)oxazol-2-yl)-2-hydroxyethoxy)-2,6-difluorobenzamide]	> 16
CN(C)C(=O)CC(Oc1ccc(F)c(C(N)=O)c1F)c1nc(-c2ccc(C(F)(F)F)cc2)c(Br)o1 (stereo not shown) [Compound 88, 3-(1-(5-bromo-4-(4-(trifluoromethyl)phenyl)oxazol-2-yl)-3-(dimethylamino)-3-oxopropoxy)-2,6-difluorobenzamide]	1 to 16 (≈ 1.78 to 28.5 µM)
CC(C)(C)OC(=O)NCCNC(=O)OCC(Oc1ccc(F)c(C(N)=O)c1F)c1nc(-c2ccc(C(F)(F)F)cc2)c(Br)o1 (stereo not shown) [Compound 151, 2-(5-bromo-4-(4-(trifluoromethyl)phenyl)oxazol-2-yl)-2-(3-carbamoyl-2,4-difluorophenoxy)ethyl tert-butyl ethane-1,2-diyldicarbamate]	< 0.25
Cc1ncccc1CNC(=O)OCC(Oc1ccc(F)c(C(N)=O)c1F)c1nc(-c2ccc(C(F)(F)F)cc2)c(Br)o1 (stereo not shown) [Compound 215, 2-(5-bromo-4-(4-(trifluoromethyl)phenyl)oxazol-2-yl)-2-(3-carbamoyl-2,4-difluorophenoxy)ethyl ((2-methylpyridin-3-yl)methyl)carbamate]	0.25 to 1 (≈ 0.381 to 1.53 µM)
C=CCOP(=O)(OCC=C)OCC(Oc1ccc(F)c(C(N)=O)c1F)c1nc(-c2ccc(C(F)(F)F)cc2)c(Br)o1 (stereo not shown) [Compound 71, diallyl (2-(5-bromo-4-(4-(trifluoromethyl)phenyl)oxazol-2-yl)-2-(3-carbamoyl-2,4-difluorophenoxy)ethyl) phosphate]	0.25 to 1
CN(Cc1cccnc1)C(=O)OCC(Oc1ccc(F)c(C(N)=O)c1F)c1nc(-c2ccc(C(F)(F)F)cc2)c(Br)o1 (stereo not shown) [Compound 185, 2-(5-bromo-4-(4-(trifluoromethyl)phenyl)oxazol-2-yl)-2-(3-carbamoyl-2,4-difluorophenoxy)ethyl methyl(pyridin-3-ylmethyl)carbamate]	0.25 to 1 (≈ 0.381 to 1.53 µM)
C=CCC(Oc1ccc(F)c(C(N)=O)c1F)c1nc(-c2ccc(Cl)cc2)c(Br)o1 (stereo not shown) [Compound 104, 3-((1-(5-bromo-4-(4-chlorophenyl)oxazol-2-yl)but-3-en-1-yl)oxy)-2,6-difluorobenzamide]	1 to 16 (≈ 2.07 to 33.1 µM)
NC(=O)c1c(F)ccc(OC(CO)c2nc(-c3ccc(Cl)cc3F)c(Br)o2)c1F (stereo not shown) [Compound 235, 3-(1-(5-bromo-4-(4-chloro-2-fluorophenyl)oxazol-2-yl)-2-hydroxyethoxy)-2,6-difluorobenzamide]	< 0.25

SMILES	MIC [µg/mL]
CCCc1oc(C(CO)Oc2ccc(F)c(C(N)=O)c2F)nc1-c1ccc(C(F)(F)F)cc1 (stereo not shown) [Compound 67, 2,6-difluoro-3-(2-hydroxy-1-(5-propyl-4-(4-(trifluoromethyl)phenyl)oxazol-2-yl)ethoxy)benzamide]	1 to 16 (≈ 2.13 to 34 µM)
Cc1nnc(CC(Oc2ccc(F)c(C(N)=O)c2F)c2nc(-c3ccc(C(F)(F)F)cc3)c(Br)o2)o1 (stereo not shown) [Compound 120, 3-(1-(5-bromo-4-(4-(trifluoromethyl)phenyl)oxazol-2-yl)-2-(5-methyl-1,3,4-oxadiazol-2-yl)ethoxy)-2,6-difluorobenzamide]	1 to 16 (≈ 1.74 to 27.9 µM)
NC(=O)c1c(F)ccc(O[C@H](COCCO)c2nc(-c3ccc(F)cc3F)c(Br)o2)c1F [Compound 265B, (R)-3-(1-(5-bromo-4-(2,4-difluorophenyl)oxazol-2-yl)-2-(2-hydroxyethoxy)ethoxy)-2,6-difluorobenzamide]	1 to 16 (≈ 1.93 to 30.8 µM)
Cc1noc(-c2ccc(-c3nc(C(CO)Oc4ccc(F)c(C(N)=O)c4F)oc3Br)cc2)n1 (stereo not shown) [Compound 85, 3-(1-(5-bromo-4-(4-(3-methyl-1,2,4-oxadiazol-5-yl)phenyl)oxazol-2-yl)-2-hydroxyethoxy)-2,6-difluorobenzamide]	1 to 16 (≈ 1.92 to 30.7 µM)
CCOC(=O)CCC(=O)OCC(Oc1ccc(F)c(C(N)=O)c1F)c1nc(-c2ccc(C(F)(F)F)cc2)c(Cl)o1 (stereo not shown) [Compound 56, 2-(3-carbamoyl-2,4-difluorophenoxy)-2-(5-chloro-4-(4-(trifluoromethyl)phenyl)oxazol-2-yl)ethyl ethyl succinate]	0.25 to 1
CC(Oc1ccc(F)c(C(N)=O)c1F)c1nc(Br)c(Cl)s1 (stereo not shown) [Compound 24]	1 to 16 (≈ 2.51 to 40.2 µM)
CC(=O)OCC(Oc1ccc(F)c(C(N)=O)c1F)c1nc(-c2ccc(C(F)(F)F)cc2)c(Br)o1 (stereo not shown) [Compound 37, 2-(5-bromo-4-(4-(trifluoromethyl)phenyl)oxazol-2-yl)-2-(3-carbamoyl-2,4-difluorophenoxy)ethyl acetate]	0.25 to 1
CC(=O)OCC(Oc1ccc(F)c(C(N)=O)c1F)c1nc(-c2ccc(C(F)(F)F)cc2)oc1Br (stereo not shown) [Compound 137, 2-(5-bromo-2-(4-(trifluoromethyl)phenyl)oxazol-4-yl)-2-(3-carbamoyl-2,4-difluorophenoxy)ethyl acetate]	> 16
CC(Oc1ccc(F)c(C(N)=O)c1F)c1nc(-c2ccc(C(F)(F)F)nc2)c(Cl)o1 (stereo not shown) [Compound 50]	1 to 16 (≈ 2.23 to 35.7 µM)
NC(=O)OCC(Oc1ccc(F)c(C(N)=O)c1F)c1nc(-c2ccc(C(F)(F)F)cc2)c(Cl)o1 (stereo not shown) [Compound 52, 2-(3-carbamoyl-2,4-difluorophenoxy)-2-(5-chloro-4-(4-(trifluoromethyl)phenyl)oxazol-2-yl)ethyl carbamate]	0.25 to 1 (≈ 0.494 to 1.98 µM)
NC(=O)c1c(F)ccc(OC(CC(=O)O)c2nc(-c3ccc(C(F)(F)F)cc3)c(Br)o2)c1F (stereo not shown) [Compound 77, 3-(5-bromo-4-(4-(trifluoromethyl)phenyl)oxazol-2-yl)-3-(3-carbamoyl-2,4-difluorophenoxy)propanoic acid]	> 16
C[C@H](O)[C@@H](Oc1ccc(F)c(C(N)=O)c1F)c1nc(-c2ccc(OC(F)F)cc2)c(Br)o1 [Compound 300, 3-((1R,2S)-1-(5-bromo-4-(4-(difluoromethoxy)phenyl)oxazol-2-yl)-2-hydroxypropoxy)-2,6-difluorobenzamide]	< 0.25
Cn1cc(CNC(=O)OCC(Oc2ccc(F)c(C(N)=O)c2F)c2nc(-c3ccc(C(F)(F)F)cc3)c(Br)o2)cn1 (stereo not shown) [Compound 198, 2-(5-bromo-4-(4-(trifluoromethyl)phenyl)oxazol-2-yl)-2-(3-carbamoyl-2,4-difluorophenoxy)ethyl ((1-methyl-1H-pyrazol-4-yl)methyl)carbamate]	0.25 to 1 (≈ 0.388 to 1.55 µM)
COC(=O)c1ccc(-c2nc(C(CO)Oc3ccc(F)c(C(N)=O)c3F)oc2Br)cc1 (stereo not shown) [Compound 246, methyl 4-(5-bromo-2-(1-(3-carbamoyl-2,4-difluorophenoxy)-2-hydroxyethyl)oxazol-4-yl)benzoate]	1 to 16 (≈ 2.01 to 32.2 µM)
C=CCc1oc(C(C)Oc2ccc(F)c(C(N)=O)c2F)nc1-c1ccc(OC)cc1 (stereo not shown) [Compound 9]	0.25 to 1 (≈ 0.603 to 2.41 µM)
COC(=O)CCNC(=O)OCC(Oc1ccc(F)c(C(N)=O)c1F)c1nc(-c2ccc(C(F)(F)F)cc2)c(Br)o1 (stereo not shown) [Compound 141, methyl 3-(((2-(5-bromo-4-(4-(trifluoromethyl)phenyl)oxazol-2-yl)-2-(3-carbamoyl-2,4-difluorophenoxy)ethoxy)carbonyl)amino)propanoate]	< 0.25
COc1ccc(-c2csc(C(CO)Oc3ccc(F)c(C(N)=O)c3F)n2)nc1 (stereo not shown) [Compound 260, 2,6-difluoro-3-(2-hydroxy-1-(4-(5-methoxypyridin-2-yl)thiazol-2-yl)ethoxy)benzamide]	1 to 16 (≈ 2.45 to 39.3 µM)
